# Measurements from PMC10975012, “The Active Glucuronide Metabolite of the Brain Protectant IMM-H004 with Poor Blood–Brain Barrier Permeability Demonstrates a High Partition in the Rat Brain via Multiple Mechanisms” (Pharmaceutics, 2024).
# What was measured:
# [1] = Plasma protein binding, rapid equilibrium dialysis; format: in vitro ADME; conditions: rat, 0.5–10 μg/mL, RED, 37 °C, read-out: unbound fraction (fu) in rat plasma
# Procedure: The rat plasma protein binding of IMM-H004 and IMM-H004G (0.5–10 μg/mL) was investigated using a rapid equilibrium dialysis (RED) assay. The RED plate inserts utilized in this assay contained a dialysis membrane with a molecular weight cut-off of 8 kDa (Thermo Fisher Scientific, Waltham, MA, USA). For the assay, aliquots of plasma (0.2 mL) and phosphate-buffered saline (0.35 mL) were added to the sample chamber and buffer chamber, respectively. The plate was then sealed and incubated at 37 °C, 200 rpm for 4 h. Following the dialysis period, the concentrations of IMM-H004 and IMM-H004G were determined using LC-MS/MS. The ratio of the drug concentration in the buffer to that in the plasma chamber was used to calculate the unbound fraction (fu) of the drugs.
# [2] = cited from earlier work
# OATP = assay: Identification of transporters using inhibitors in hCMEC/D3 cells: OATP; format: cell-based, human; conditions: substrate 10 μmol/L, inhibitor 100 μmol/L
# Procedure: The toxicity of all compounds, including inhibitors and substrates, toward hCMEC/D3 cells, was assessed using the 3-(4,5-Dimethylthiazol-2-yl)-2,5-diphenyltetrazolium bromide (MTT) reduction assay as described previously. To assess the effects of pyrilamine-sensitive proton-coupled organic cation (H^+/OC) antiporter, organic anion transporter (OAT), organic anion-transporting polypeptides (OATPs), organic cation transporter (OCT), and novel organic cation–carnitine transporter (OCTN) inhibitors on the uptake process, IMM-H004 or IMM-H004G (10 µmol/L) combined with the inhibitors were added to the medium after preincubating the cells with the inhibitors for 30 min. For evaluating the impact of the multidrug and toxin extrusion transporter (MATE), P-glycoprotein (P-gp), multidrug resistance protein (MRP), and breast cancer resistance protein (BCRP) on the uptake, IMM-H004 or IMM-H004G (10 µmol/L) was preincubated with the cells for 2 h before the addition of the inhibitors. After removing the supernatant, the cells were washed twice with prewarmed HBSS and incubated with fresh HBSS for 20 min. At the end of incubation, the supernatants were collected. […] The protein content of the lysed cells was determined using a bicinchoninic acid (BCA) assay kit (Beyotime Inc., Shanghai, China). The results were expressed as a percentage of the vehicle control.
# [3] = In vivo metabolism of IMM-H004 in rat brain after intracerebroventricular injection; conditions: for detection in brain regions: 6–60 min after icv injection of IMM-H004 3.8 μg/kg
# Procedure: The metabolism of IMM-H004 in the brain was investigated through the intracerebroventricular (icv) injection of IMM-H004 in rats, and the drug concentration in each brain region was analyzed. The rats were fixed on a benchmark stereotactic instrument (Leica Biosystems, Deer Park, IL, USA) under isoflurane anesthesia. Using a microinjector connected to a syringe pump, a 5 μL solution of IMM-H004 was dissolved in artificial cerebrospinal fluid (ACSF) and injected (3.8 μg/kg) into the lateral ventricle. The injection coordinates were as follows: medial/lateral = 1.5 mm; anterior/posterior = −0.8 mm; dorsal/ventral = −4 mm. Animals were sacrificed at 6, 15, 30, 45, and 60 min after drug administration. The brains were collected and dissected on ice into the following regions: the cerebellum, brainstem, hypothalamus, hippocampus, midbrain, striatum, and cortex. The subsequent procedure for processing tissue samples was the same as the procedure described in Section 2.3.1.
# [4] = In vitro metabolism in rat brain homogenate; format: in vitro ADME
# Procedure: Rat brains were homogenized in chilled saline (1:3, w/v) on ice to obtain the brain homogenate. The incubation mixtures composed of the brain homogenate (2 mg protein/mL), alamethicin (50 μg/mg protein), IMM-H004 (10 μmol/L), and UDPGA (5 mmol/L) in a final volume of 0.2 mL of Tris-HCl buffer (50 mmol/L, pH 7.4) containing 5 mmol/L of MgCl2. Before initiating the reaction, the brain homogenate was preincubated with alamethicin on ice for 15 min. Subsequently, IMM-H004 and UDPGA were added to initiate the reaction. After incubating at 37 °C for 60 min, the reaction was quenched by adding two volumes of acetonitrile containing IS (0.1 μg/mL). On the other hand, IMM-H004G (1 μmol/L) was incubated with the brain homogenate (2 mg protein/mL) for up to 4 h. The concentrations of IMM-H004 and IMM-H004G were determined by LC-MS/MS.
# HEB cells = assay: In vitro metabolism in human brain cells (HEB); format: in vitro ADME; conditions: IMM-H004 1–100 μmol/L, up to 5 h
# Procedure: (§1) SH-SY5Y, HEB, and hCMEC/D3 cells were utilized to investigate the in vitro metabolism of IMM-H004 and IMM-H004G in the brain. SH-SY5Y and HEB cells were cultured routinely in Dulbecco’s modified Eagle’s medium (DMEM) containing 10% fetal bovine serum and a 100 U/mL penicillin–100 μg/mL streptomycin solution. hCMEC/D3 cells were seeded on collagen type I coated 24-well plates and cultured in EndoGRO™-MV complete medium following the manufacturer’s guidelines. The cells were incubated at 37 °C, with 5% CO2, and were maintained in a humidified environment. Once the confluence reached 70–80%, the cells were digested using a 0.25% trypsin–EDTA solution, centrifuged at 200× g for 5 min, and then resuspended in a fresh culture medium. For each experiment, after seeding and 24 h incubation, the cells were washed twice with a prewarmed culture medium, and then IMM-H004 or IMM-H004G (1–100 μmol/L) dissolved in the culture medium was added. Incubation was carried out at 37 °C for 5 h or 24 h. After incubation, the supernatants were collected. Subsequently, the cells were washed with cold HBSS three times and lysed in a RIPA lysis buffer (Beyotime Inc., Shanghai, China). The concentrations of IMM-H004 and IMM-H004G were determined by liquid chromatography with tandem mass spectrometry (LC-MS/MS).
# SH-SY5Y cells = assay: In vitro metabolism in human brain cells (SH-SY5Y); format: in vitro ADME; conditions: IMM-H004 1–100 μmol/L
# Procedure: as §1
fraction unbound at 4 h [1],reduction of uptake by OATP inhibitor rifamycin (OATP),"Kp ([3]; hypothalamus and plasma, icv or intrathecal, 3.8 ug/kg, after icv injection of IMM-H004 3.8 μg/kg, read-out: hypothalamus-to-plasma AUC ratio)",production of IMM-H004G from IMM-H004 (HEB cells),production of IMM-H004G from IMM-H004 (SH-SY5Y cells),"formation of IMM-H004G ([4]; IMM-H004 10 μmol/L, rat brain homogenate, 1 h)",SMILES,brain exposure relative to the parent drug ([2]; rats),detection in brain regions [3],"stability of IMM-H004G (change in concentration) ([4]; 1 μmol/L, rat brain homogenate 2 mg/mL protein, 4 h)","elimination half-life ([2]; rat plasma and brain tissues, intravenous dosing)"
0.315 ± 0.008,39.6%,3.13,–,–,–,COc1cc(OC2OC(C(=O)O)C(O)C(O)C2O)cc2oc(=O)c(N3CCN(C)CC3)c(C)c12 (stereo not drawn) [IMM-H004G],six times higher,only detected at lower concentrations in the hypothalamus,did not result in a reduction in its concentration,–
0.025 ± 0.002,–,–,depended on both time and concentration,not detected,time-dependent,COc1cc(O)cc2oc(=O)c(N3CCN(C)CC3)c(C)c12 [IMM-H004],–,detected in all brain regions,–,< 1 h
